# Results taken from US5023270A, “Antidepressant method of use” (priority 1988, dated 1991).
# “Also recorded” adds a separate entry of the source.
# Tests used:
# [1] = Acute oral toxicity, single administration, 14 days observation; settings: in vivo, 2% carboxymethylcellulose with 5% Tween 80
# Experimental: Animal trials were performed with mice and male rats free from specific pathogenic organisms, subject to a preliminary water diet for 18 hours. All animals were kept under observation during 14 days after a single oral administration, in order to detect any eventuality of toxic after effects. The median lethal dose LD50 and its confidence limits were computed by the graphic method of J. T. Litchfield and F. Wilcoxon.
# Oral administration was used throughout the experiments, with an aqueous solution of 2% carboxymethylcellulose treated with Tween®80 (Difco or ICI) at 5% as dispersing agent.
# rabbits = test: Long-term toxicity, ingestive intake; assay type: in vivo; settings: 300 mg/kg daily, 42 consecutive days
# Excerpt: The general, long-term toxicity of 5-MOP was also investigated in rabbits treated by ingestion and dermal application, with the following results: […]
# plasma melatonin [2] = test: Plasma melatonin in psychiatric patients and control subjects after a single oral dose of 5-MOP; assay type: in vivo, human; settings: for Delta Melatonin: 11:00 p.m. minus 8:00 p.m. baseline, 40 mg oral; for Melatonin (11:00 p.m.): 3 h after 40 mg oral 5-MOP, mean ± SEM
# Experimental: FIG. 1 is a bar histogram which depicts the plasma melatonin levels in six diverse groups of human subjects before and after treatment with a single dose of 40 mg 5-methoxypsoralen (5-MOP) administered orally to each subject at 8:00 p.m. The subjects were maintained in total darkness or under weak illumination (without UV) for at least 9 hours after 5-MOP intake (corresponding to the sleep period). Blood samples were taken at 8:00 p.m. prior to 5-MOP administration and at 11:00 p.m. (see text for full description of experimental details). Plasma melatonin levels were evaluated by radioimmunology after extraction in diethylether using the method of Treifenaueret, Andres. Melatonin levels were established and compared with each group of subjects with similar age means using paired t-tests and between groups using unpaired t-tests. " -melatonin is defined as the difference between plasma melatonin levels (nmd/1) after 5-MOP uptake (3 hours after administration and =before 5-MOP administration; =after 5-MOP uptake. (p=significance of difference between the two values. )
# The experiment was performed on six groups of human subjects.
# Control groups 1, 2 and 3 comprised respectively:
# Group 1: 13 elderly, sane subjects (7 women, 6 men).
# Group 2: 13 middle-aged, sane subjects (6 women, 7 men).
# Group 3: 13 young, sane subjects (6 women, 7 men).
# These subjects had been contacted for welfare or minor nervous problems, but were free from major psychiatric disorders or organic illnesses. Most aged subjects were waiting for admission to nursing homes.
# These elderly patients had no major cardiac, hepatic, renal, endocrineous or osseous disorders, nor any evolutionary pathology.
# Group 5 comprised 13 subjects (8 women, 5 men) in an acute depressive phase, showing all symptoms of a major depressive disorder in the sense of DSM III.
# Group 6 comprised 13 schizophrenic subjects (6 women, 7 men), according to DSM III criteria.
# The diagnosis was established by means of a structured examination for affective disorders, schizophrenia and dementia, performed on each patient by two different psychiatrists. Any patient with a history of serious attendant illnesses, such as high blood pressure, diabetes, or other endocrineous pathologies, with distorted clinical or biological results, were excluded from the study. The patients received no medicaments 4 days prior to the experiment, except for 5 mg nitrazepam or 0.25 mg trazolam in the evening. All subjects participated voluntarily in the experiment and 5 were advised of its purpose. A single dose of 40 mg 5-methoxypsoralen (5-MOP) was given orally to all subjects at 8:00 p.m. To avoid any photosensitivity effects due to psoralen, patients were maintained in total darkness or under weak illumination (without UV) for at least 9 hours after 5-MOP intake (corresponding to the sleep period).
# Blood samples were taken at 8:00 p.m., prior to 5-MOP administration, and again at 11:00 p.m., by means of a stationary catheter attached to the forearm at least twenty minutes before extraction of the first blood sample. Samples were immediately centrifugated at 4° C. and refrigerated at -20° C. until quantitative analysis. Plasma levels were evaluated by radioimmunology after extraction in diethylether, using the #method of Treifenaueret, Andres.
# Melatonin levels were established and compared within each group by means of paired t-tests, and between groups by unpaired t-tests.
# Because age could influence endocrinous responses, only groups with similar age means were compared in these experiments.
# " melatonin" has been defined as the difference between melatonin levels after 5-MOP intake and the corresponding baseline values. The parameter "p" measures the significance of the difference between two values.
# [3] = tested on: major depressive disorder; test: Clinical study of antidepressant effect (17 HDRS items), major depressive disorder; assay type: in vivo, human
# Experimental: Experimental verification of the clinical effects of 5-MOP on depressive patients was performed on 24 physically sane subjects (11 men and 13 women), suffering from a major depressive disorder.
# Chosen patients afflicted with a major depressive disorder according to DSM III were given no treatment 4 days prior to the experiment, except for 5 mg nitrazepam in the evening.
# The patients were divided into two groups. The first group was treated with a single daily dose of 40 mg 5-MOP during a week, administered orally at 9:00 p.m. The second group was given placebos, double blindly, under identical conditions.
# To prevent any parallel effects due to the photosensitive properties of 5-MOP, patients were not exposed to ultraviolet (UV) radiation during nine hours following 5-MOP intake (corresponding to their sleep period).
# After a week of treatment with 5-methoxypsoralen or placebos, clinical results were established for each patient group, and compared using the Wilcoxon test (W) within groups and the Mann-Whitney test (U) between groups.
# plasma melatonin [4] = settings: cited from earlier work
structure (smiles),measurement,setting,value
"COc1c2ccoc2cc2oc(=O)ccc12 [5-MOP, 4-methoxy-7H-furo[3,2-g][1]benzopyran-7-one]",LD50 at 336 h,"[1]; mouse, male mice",8100 mg/kg
same,LD50 at 336 h,"[1]; rat, male rats",> 30000 mg/kg
same,"tolerance in toxicological tests (general condition, hematological, anatomicopathological, skin and eye, clinical chemolysis)",rabbits,good tolerance
same,Delta Melatonin,plasma melatonin [2]; Control 1 (elderly sane),0.22 ± 0.11 nmd/1
same,Melatonin (11:00 p.m.),"plasma melatonin [2]; Control 1 (elderly sane, n=13), baseline 8:00 p.m. 0.19 ± 0.05",0.42 ± 0.12 nmd/1
same,Delta Melatonin,plasma melatonin [2]; Control 2 (middle-aged sane),0.20 ± 0.08 nmd/1
same,Melatonin (11:00 p.m.),"plasma melatonin [2]; Control 2 (middle-aged sane, n=13), baseline 8:00 p.m. 0.16 ± 0.04",0.36 ± 0.09 nmd/1
same,Delta Melatonin,plasma melatonin [2]; Control 3 (young sane),0.21 ± 0.09 nmd/1
same,Melatonin (11:00 p.m.),"plasma melatonin [2]; Control 3 (young sane, n=13), baseline 8:00 p.m. 0.16 ± 0.05",0.36 ± 0.11 nmd/1
same,correlation between melatonin levels and absolute 5-MOP content,plasma melatonin [2]; at the dosage used (40 mg),No correlation was observed
same,melatonin levels after 5-MOP intake (in words),"plasma melatonin [2]; control groups, vs before intake, t=4.59, p<0.01, t=4.18, p<0.001, t<3.92, p<0.001",substantially higher
same,Melatonin (11:00 p.m.),"plasma melatonin [2]; dements (n=13), baseline 8:00 p.m. 0.21 ± 0.06, t=3.34, p<0.01",0.30 ± 0.08 nmd/1
same,mean delta melatonin vs control group (in words),"plasma melatonin [2]; dements vs elderly control group, r=2.4, p<0.03",substantially lower
same,Delta Melatonin,"plasma melatonin [2]; dements, vs Control 1 t/p 2.4/0.025",0.09 ± 0.06 nmd/1
same,Melatonin (11:00 p.m.),"plasma melatonin [2]; depressives (n=13), baseline 8:00 p.m. 0.22 ± 0.06, t=2.29, p<0.05",0.39 ± 0.15 nmd/1
same,mean delta melatonin vs control group (in words),"plasma melatonin [2]; depressives vs control group, r=0.59, p<0.05, not significant",slightly lower
same,Delta Melatonin,"plasma melatonin [2]; depressives, vs Control 2 t/p 0.59/0.562",0.17 ± 0.09 nmd/1
same,plasma melatonin levels after administration (in words),plasma melatonin [2]; psychiatric subjects,significant rise; also recorded: significant increase
same,Melatonin (11:00 p.m.),"plasma melatonin [2]; schizophrenics (n=13), baseline 8:00 p.m. 0.21 ± 0.09, t=8.31, p<0.0001",0.48 ± 0.09 nmd/1
same,Delta Melatonin,"plasma melatonin [2]; schizophrenics, vs Control 3 t/p 0.58/0.567",0.15 ± 0.05 nmd/1
same,side-effects,"plasma melatonin [2]; single 40 mg oral dose, all groups",No patient exhibited side-effects
same,side effects,"[3]; 40 mg daily oral, one week",no patient treated with 5-MOP suffered side effects
same,treatment period to obtain the same improvement in behavior,[3]; 5-MOP composition compared with tricyclics,one
same,HDRS J7,"[3]; 17 HDRS items, 40 mg daily oral 9:00 p.m., one week, n=12, HDRS J0 21.92 ± 8.21, W 3.5, p 0.01, placebo J7 21.16 ± 5.02",16.67 ± 7.99
same,improvement of depressive state (in words),"[3]; after a week of treatment, 40 mg daily oral, vs placebo",significant improvement; also recorded: rapid improvement from depression; also recorded: significantly improves the depressive state
same,effect without UVA irradiation,[3]; without irradiation of patients by UVA,full effect
same,retinal sensitivity to light,"plasma melatonin [4]; humans, acute effect",increases
same,plasma melatonin levels / melatonin secretion (in words),"plasma melatonin [4]; humans, sane subjects, earlier reports",increased melatonin secretion; also recorded: increases in plasma melatonin levels
same,effect on other endocrine hormones,plasma melatonin [4]; perfectly sane human subjects,no discernible effect
"COc1c2occc2cc2ccc(=O)oc12 [8-methoxypsoralen, reference compound]",LD50 at 336 h,"[1]; mouse, male mice",875 mg/kg
same,LD50 at 336 h,"[1]; rat, male rats",4400 mg/kg
